Reference: article PMC6091245, “Genome-Wide Identification and Expression Analysis of Cutinase Gene Family in Rhizoctonia cerealis and Functional Study of an Active Cutinase RcCUT1 in the Fungal–Wheat Interaction” (Frontiers in Microbiology, 2018)

Target: T1, RcCUT1 (MBP-RcCUT1) (Ceratobasidium cereale, UniProt A0A346Q044)
T1 construct: E. coli BL21 (DE3); amylose resin; about 63 kDa on SDS-PAGE
Test: spectrophotometric p-nitrophenol release at […] nm
Type: biochemical
Conditions: 1 mM substrate; 20 mM Tris-HCl, 10 mM NaCl, 50 mM sodium taurodeoxycholate, pH 8.0, 20 °C; MBP-tag alone inactive

T1 sequence (A0A346Q044 entry or part of it): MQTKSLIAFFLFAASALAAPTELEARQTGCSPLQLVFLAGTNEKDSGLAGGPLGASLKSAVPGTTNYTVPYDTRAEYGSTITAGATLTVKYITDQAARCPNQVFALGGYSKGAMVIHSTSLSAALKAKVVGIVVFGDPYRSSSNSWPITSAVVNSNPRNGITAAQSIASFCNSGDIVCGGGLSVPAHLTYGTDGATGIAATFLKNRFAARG

## CCCC(=O)Oc1ccc([N+](=O)[O-])cc1 [p-nitrophenyl butyrate]
  spectrophotometric p-nitrophenol release at 405 nm: the purified MBP-RcCUT1 had the enzymatic activity for hydrolyzing pNPB substrate
